Experimental data published in patent US20120029187A1, “HALOALKYLSULFONANILIDE DERIVATIVE” (Nissan Chemical Industries, Ltd., priority 2009, published 2012).

How the values were obtained:
Assay type in all cases: in vivo
[1] = test system: giant foxtail; assay: Test Example 4: herbicidal effect in foliage treatment; details: dose 3.2 g/a
Method in brief: (§1)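 Foliar spray, post-emergence: 14-day-old greenhouse plants (25–30° C, diluvial soil) treated with water-diluted EC at set g/a doses; visual herbicidal score at 3 wk post-application.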

[2] = test system: barnyardgrass; assay: as above; details: dose 3.2 g/a
Method in brief: as §1

[3] = test system: large crabgrass; assay: as above; details: dose 3.2 g/a
Method in brief: as §1

[4] = test system: common chickweed; assay: as above; details: dose 3.2 g/a
Method in brief: as §1

[5] = test system: water foxtail; assay: as above; details: dose 3.2 g/a
Method in brief: as §1

[6] = test system: velvetleaf; assay: as above; details: dose 3.2 g/a
Method in brief: as §1

[7] = test system: Italian ryegrass; assay: as above; details: dose 3.2 g/a
Method in brief: as §1

[8] = test system: redroot pigweed; assay: as above; details: dose 3.2 g/a
Method in brief: as §1

[9] = test system: common lambsquater; assay: as above; details: dose 3.2 g/a
Method in brief: as §1

[10] = test system: posumbu knotweed; assay: as above; details: dose 3.2 g/a
Method in brief: as §1

[11] = test system: common ragweed; assay: as above; details: dose 3.2 g/a
Method in brief: as §1

[12] = test system: ducksalad; assay: Test Example 2: herbicidal effects during the vegetation period under submerged conditions; details: treatment during the vegetation period under submerged conditions; dose 2.52 g/a
Method in brief: (§2)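 Barnyardgrass, bulrush and ducksalad were co-sown in alluvial soil flooded to 4 cm and grown in a greenhouse at 25 to 30° C. At the 1- or 2-leaf stage, water-diluted emulsifiable concentrates went onto the water surface at set doses (g/a). Herbicidal effect was scored three weeks later on a graded scale.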

[13] = test system: barnyardgrass; assay: as above; details: treatment during the vegetation period under submerged conditions; dose 2.52 g/a
Method in brief: as §2

[14] = test system: bulrush; assay: as above; details: treatment during the vegetation period under submerged conditions; dose 2.52 g/a
Method in brief: as §2

[15] = test system: giant foxtail; assay: Test Example 3: herbicidal effects in soil treatment; details: dose 3.2 g/a
Method in brief: (§3)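 Seeds were sown in sterilized diluvial soil and covered with about 1.5 cm of soil. Compounds, formulated as emulsifiable concentrates and diluted with water, were sprayed evenly over the soil surface at set doses in g/a. Herbicidal effect was scored on a rating scale three weeks later.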

[16] = test system: barnyardgrass; assay: as above; details: dose 3.2 g/a
Method in brief: as §3

[17] = test system: large crabgrass; assay: as above; details: dose 3.2 g/a
Method in brief: as §3

[18] = test system: common chickweed; assay: as above; details: dose 3.2 g/a
Method in brief: as §3

[19] = test system: water foxtail; assay: as above; details: dose 3.2 g/a
Method in brief: as §3

[20] = test system: velvetleaf; assay: as above; details: dose 3.2 g/a
Method in brief: as §3

[21] = test system: Italian ryegrass; assay: as above; details: dose 3.2 g/a
Method in brief: as §3

[22] = test system: redroot pigweed; assay: as above; details: dose 3.2 g/a
Method in brief: as §3

[23] = test system: common lambsquater; assay: as above; details: dose 3.2 g/a
Method in brief: as §3

[24] = test system: posumbu knotweed; assay: as above; details: dose 3.2 g/a
Method in brief: as §3

[25] = test system: common ragweed; assay: as above; details: dose 3.2 g/a
Method in brief: as §3

[26] = test system: transplanted rice; assay: Test Example 1: preemergence treatment under submerged conditions, effect on crop; details: dose 2.52 g/a
Method in brief: (§4)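 Alluvial soil was flooded to 4 cm, sown with barnyardgrass, bulrush and ducksalad, and planted with 2.5-leaf rice seedlings. On the seeding day, water-diluted emulsifiable concentrates were applied to the water surface at set doses (g/a). After three weeks in a 25 to 30° C. greenhouse, mortality was scored 0–5.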

[27] = test system: ducksalad; assay: Test Example 1: herbicidal effects in preemergence treatment under submerged conditions; details: dose 2.52 g/a
Method in brief: as §4

[28] = test system: barnyardgrass; assay: as above; details: dose 2.52 g/a
Method in brief: as §4

[29] = test system: bulrush; assay: as above; details: dose 2.52 g/a
Method in brief: as §4

[30] = test system: beadstraw; assay: Test Example 4: herbicidal effect in foliage treatment; details: dose 3.2 g/a, three weeks after the application
Method in brief: as §1

[31] = three weeks after the application

CCOC(=O)N(c1ccccc1CN1COC(C)(C2CC2)CC1=O)S(=O)(=O)C(F)(F)F (stereo not drawn) [II-45]
E: giant foxtail, herbicidal effect ([1]; three weeks after application): 2 (mortality of at least 20% and less than 40%)
A: barnyardgrass, herbicidal effect ([2]; three weeks after application): 4 (mortality of at least 70% and less than 90%)
D: large crabgrass, herbicidal effect ([3]; three weeks after application): 3 (mortality of at least 40% and less than 70%)
N: common chickweed, herbicidal effect ([4]; three weeks after application): 3 (mortality of at least 40% and less than 70%)
G: water foxtail, herbicidal effect ([5]; three weeks after application): 4 (mortality of at least 70% and less than 90%)
I: velvetleaf, herbicidal effect ([6]; three weeks after application): 2 (mortality of at least 20% and less than 40%)
H: Italian ryegrass, herbicidal effect ([7]; three weeks after application): 4 (mortality of at least 70% and less than 90%)
K: redroot pigweed, herbicidal effect ([8]; three weeks after application): 0 (mortality of less than 5% (almost ineffective))
L: common lambsquater, herbicidal effect ([9]; three weeks after application): 3 (mortality of at least 40% and less than 70%)
M: posumbu knotweed, herbicidal effect ([10]; three weeks after application): 3 (mortality of at least 40% and less than 70%)
J: common ragweed, herbicidal effect ([11]; three weeks after application): 3 (mortality of at least 40% and less than 70%)
C: ducksalad, herbicidal effect (evaluation scale 0-5) [12]: 5 (mortality of 90% or above (nearly complete death))
A: barnyardgrass, herbicidal effect (evaluation scale 0-5) [13]: 5 (mortality of 90% or above (nearly complete death))
B: bulrush, herbicidal effect (evaluation scale 0-5) [14]: 5 (mortality of 90% or above (nearly complete death))
E: giant foxtail, herbicidal effect (evaluation scale 0-5) [15]: 4 (mortality of at least 70% and less than 90%)
A: barnyardgrass, herbicidal effect (evaluation scale 0-5) [16]: 5 (mortality of 90% or above (nearly complete death))
D: large crabgrass, herbicidal effect (evaluation scale 0-5) [17]: 4 (mortality of at least 70% and less than 90%)
N: common chickweed, herbicidal effect (evaluation scale 0-5) [18]: 3 (mortality of at least 40% and less than 70%)
G: water foxtail, herbicidal effect (evaluation scale 0-5) [19]: 5 (mortality of 90% or above (nearly complete death))
I: velvetleaf, herbicidal effect (evaluation scale 0-5) [20]: 0 (mortality of less than 5% (almost ineffective))
H: Italian ryegrass, herbicidal effect (evaluation scale 0-5) [21]: 4 (mortality of at least 70% and less than 90%)
K: redroot pigweed, herbicidal effect (evaluation scale 0-5) [22]: 0 (mortality of less than 5% (almost ineffective))
L: common lambsquater, herbicidal effect (evaluation scale 0-5) [23]: 0 (mortality of less than 5% (almost ineffective))
M: posumbu knotweed, herbicidal effect (evaluation scale 0-5) [24]: 4 (mortality of at least 70% and less than 90%)
J: common ragweed, herbicidal effect (evaluation scale 0-5) [25]: 4 (mortality of at least 70% and less than 90%)
a: transplanted rice, effect on crop (evaluation scale 0-5) [26]: 0 (mortality of less than 5% (almost ineffective))
C: ducksalad, herbicidal effect (evaluation scale 0-5) [27]: 5 (mortality of 90% or above (nearly complete death))
A: barnyardgrass, herbicidal effect (evaluation scale 0-5) [28]: 5 (mortality of 90% or above (nearly complete death))
B: bulrush, herbicidal effect (evaluation scale 0-5) [29]: 5 (mortality of 90% or above (nearly complete death))

CCOC(=O)N(c1ccccc1CN1OCC(C(F)(F)F)OC1=O)S(=O)(=O)C(F)(F)F (stereo not drawn) [III-9]
E: giant foxtail, herbicidal effect [1, 31]: 0 (mortality of less than 5% (almost ineffective))
A: barnyardgrass, herbicidal effect [2, 31]: 0 (mortality of less than 5% (almost ineffective))
D: large crabgrass, herbicidal effect [3, 31]: 0 (mortality of less than 5% (almost ineffective))
N: common chickweed, herbicidal effect [4, 31]: 3 (mortality of at least 40% and less than 70%)
G: water foxtail, herbicidal effect [5, 31]: 5 (mortality of 90% or above (nearly complete death))
I: velvetleaf, herbicidal effect [6, 31]: 3 (mortality of at least 40% and less than 70%)
O: beadstraw, herbicidal effect [30]: 3 (mortality of at least 40% and less than 70%)
H: Italian ryegrass, herbicidal effect [7, 31]: 0 (mortality of less than 5% (almost ineffective))
K: redroot pigweed, herbicidal effect [8, 31]: 0 (mortality of less than 5% (almost ineffective))
L: common lambsquater, herbicidal effect [9, 31]: 2 (mortality of at least 20% and less than 40%)
M: posumbu knotweed, herbicidal effect [10, 31]: 2 (mortality of at least 20% and less than 40%)
J: common ragweed, herbicidal effect [11, 31]: 0 (mortality of less than 5% (almost ineffective))
C: ducksalad, herbicidal effect (evaluation scale 0-5) [12]: 4 (mortality of at least 70% and less than 90%)
A: barnyardgrass, herbicidal effect (evaluation scale 0-5) [13]: 4 (mortality of at least 70% and less than 90%)
B: bulrush, herbicidal effect (evaluation scale 0-5) [14]: 5 (mortality of 90% or above (nearly complete death))
herbicidal effect, E: giant foxtail [15]: 2 (mortality of at least 20% and less than 40%)
herbicidal effect, A: barnyardgrass [16]: 2 (mortality of at least 20% and less than 40%)
herbicidal effect, D: large crabgrass [17]: 0 (mortality of less than 5% (almost ineffective))
herbicidal effect, N: common chickweed [18]: 1 (mortality of at least 5% and less than 20%)
herbicidal effect, G: water foxtail [19]: 5 (mortality of 90% or above (nearly complete death))
herbicidal effect, H: Italian ryegrass [21]: 0 (mortality of less than 5% (almost ineffective))
herbicidal effect, K: redroot pigweed [22]: 0 (mortality of less than 5% (almost ineffective))
herbicidal effect, L: common lambsquater [23]: 3 (mortality of at least 40% and less than 70%)
herbicidal effect, M: posumbu knotweed [24]: 1 (mortality of at least 5% and less than 20%)
herbicidal effect, J: common ragweed [25]: 0 (mortality of less than 5% (almost ineffective))
a: transplanted rice, effect on crop (evaluation scale 0-5) [26]: 0 (mortality of less than 5% (almost ineffective))
C: ducksalad, herbicidal effect (evaluation scale 0-5) [27]: 0 (mortality of less than 5% (almost ineffective))
A: barnyardgrass, herbicidal effect (evaluation scale 0-5) [28]: 4 (mortality of at least 70% and less than 90%)
B: bulrush, herbicidal effect (evaluation scale 0-5) [29]: 5 (mortality of 90% or above (nearly complete death))

CCOC(=O)N(c1ccccc1CN1COC(C)(c2ccccc2)CC1=O)S(=O)(=O)C(F)(F)F (stereo not drawn) [II-58]
E: giant foxtail, herbicidal effect ([1]; three weeks after application): 0 (mortality of less than 5% (almost ineffective))
A: barnyardgrass, herbicidal effect ([2]; three weeks after application): 3 (mortality of at least 40% and less than 70%)
D: large crabgrass, herbicidal effect ([3]; three weeks after application): 0 (mortality of less than 5% (almost ineffective))
N: common chickweed, herbicidal effect ([4]; three weeks after application): 4 (mortality of at least 70% and less than 90%)
G: water foxtail, herbicidal effect ([5]; three weeks after application): 3 (mortality of at least 40% and less than 70%)
I: velvetleaf, herbicidal effect ([6]; three weeks after application): 0 (mortality of less than 5% (almost ineffective))
H: Italian ryegrass, herbicidal effect ([7]; three weeks after application): 4 (mortality of at least 70% and less than 90%)
K: redroot pigweed, herbicidal effect ([8]; three weeks after application): 0 (mortality of less than 5% (almost ineffective))
L: common lambsquater, herbicidal effect ([9]; three weeks after application): 1 (mortality of at least 5% and less than 20%)
M: posumbu knotweed, herbicidal effect ([10]; three weeks after application): 3 (mortality of at least 40% and less than 70%)
J: common ragweed, herbicidal effect ([11]; three weeks after application): 3 (mortality of at least 40% and less than 70%)
C: ducksalad, herbicidal effect (evaluation scale 0-5) [12]: 5 (mortality of 90% or above (nearly complete death))
A: barnyardgrass, herbicidal effect (evaluation scale 0-5) [13]: 4 (mortality of at least 70% and less than 90%)
B: bulrush, herbicidal effect (evaluation scale 0-5) [14]: 5 (mortality of 90% or above (nearly complete death))
E: giant foxtail, herbicidal effect (evaluation scale 0-5) [15]: 0 (mortality of less than 5% (almost ineffective))
A: barnyardgrass, herbicidal effect (evaluation scale 0-5) [16]: 0 (mortality of less than 5% (almost ineffective))
D: large crabgrass, herbicidal effect (evaluation scale 0-5) [17]: 0 (mortality of less than 5% (almost ineffective))
N: common chickweed, herbicidal effect (evaluation scale 0-5) [18]: 0 (mortality of less than 5% (almost ineffective))
G: water foxtail, herbicidal effect (evaluation scale 0-5) [19]: 5 (mortality of 90% or above (nearly complete death))
I: velvetleaf, herbicidal effect (evaluation scale 0-5) [20]: 0 (mortality of less than 5% (almost ineffective))
H: Italian ryegrass, herbicidal effect (evaluation scale 0-5) [21]: 4 (mortality of at least 70% and less than 90%)
K: redroot pigweed, herbicidal effect (evaluation scale 0-5) [22]: 0 (mortality of less than 5% (almost ineffective))
L: common lambsquater, herbicidal effect (evaluation scale 0-5) [23]: 0 (mortality of less than 5% (almost ineffective))
M: posumbu knotweed, herbicidal effect (evaluation scale 0-5) [24]: 4 (mortality of at least 70% and less than 90%)
J: common ragweed, herbicidal effect (evaluation scale 0-5) [25]: 0 (mortality of less than 5% (almost ineffective))
a: transplanted rice, effect on crop (evaluation scale 0-5) [26]: 0 (mortality of less than 5% (almost ineffective))
C: ducksalad, herbicidal effect (evaluation scale 0-5) [27]: 5 (mortality of 90% or above (nearly complete death))
A: barnyardgrass, herbicidal effect (evaluation scale 0-5) [28]: 5 (mortality of 90% or above (nearly complete death))
B: bulrush, herbicidal effect (evaluation scale 0-5) [29]: 5 (mortality of 90% or above (nearly complete death))
